Measured values reported in patent US20210195905A1, “NATURAL COMPLEX PRESERVATIVE AGENT FOR GRAIN OR GRAIN PRODUCT” (BST Inc., priority 2019, published 2021).

Assay: DPPH radical scavenging (antioxidant activity)
Format: biochemical
Details: 0.2 mM DPPH, 30 minutes in the dark, absorbance 517 nm

For `O=C1O[C@H]([C@@H](O)CO)C(O)=C1O` [L-ascorbic acid], the “concentration for 50% scavenging of radical (SC50)” value was 49.95 µg/mL.
With `COc1ccc(O)c(C(C)(C)C)c1` [BHA, Butylated Hydroxy Anisole] the “concentration for 50% scavenging of radical (SC50)” value was 58.83 µg/mL.
